pIC50: −log10 of the molar value.
What was measured:
SW-620 = assay: Antiproliferative activity against human SW-620 cells measured after 48 hrs by SRB assay; assay type: functional, cell-based
NCI-H522 = assay: Antiproliferative activity against human NCI-H522 cells measured after 48 hrs by SRB assay; assay type: functional, cell-based
HT-29 = assay: Antiproliferative activity against human HT-29 cells measured after 48 hrs by SRB assay; assay type: functional, cell-based
OVCAR-3 = assay: Antiproliferative activity against human OVCAR-3 cells measured after 48 hrs by SRB assay; assay type: functional, cell-based
K562 = assay: Antiproliferative activity against human K562 cells measured after 48 hrs by SRB assay; assay type: functional, cell-based
HOP-92 = assay: Antiproliferative activity against human HOP-92 cells measured after 48 hrs by SRB assay; assay type: functional, cell-based
NCI-H226 = assay: Antiproliferative activity against human NCI-H226 cells measured after 48 hrs by SRB assay; assay type: functional, cell-based
SR = assay: Antiproliferative activity against human SR cells measured after 48 hrs by SRB assay; assay type: functional, cell-based
WI-38 = assay: Antiproliferative activity against human WI-38 cells measured by MTT assay; assay type: functional, cell-based
OVCAR-4 = assay: Antiproliferative activity against human OVCAR-4 cells measured after 48 hrs by SRB assay; assay type: functional, cell-based
Malme-3M = assay: Antiproliferative activity against human Malme-3M cells measured after 48 hrs by SRB assay; assay type: functional, cell-based
UACC-62 = assay: Antiproliferative activity against human UACC-62 cells measured after 48 hrs by SRB assay; assay type: functional, cell-based
HCT-15 = assay: Antiproliferative activity against human HCT-15 cells measured after 48 hrs by SRB assay; assay type: functional, cell-based
SK-MEL-28 = assay: Antiproliferative activity against human SK-MEL-28 cells measured after 48 hrs by SRB assay; assay type: functional, cell-based
SNB-75 = assay: Antiproliferative activity against human SNB-75 cells measured after 48 hrs by SRB assay; assay type: functional, cell-based
HCT-116 = assay: Antiproliferative activity against human HCT-116 cells measured after 48 hrs by SRB assay; assay type: functional, cell-based
MOLT-4 = assay: Antiproliferative activity against human MOLT-4 cells measured after 48 hrs by SRB assay; assay type: functional, cell-based
A498 = assay: Antiproliferative activity against human A498 cells measured after 48 hrs by SRB assay; assay type: functional, cell-based
SN12C = assay: Antiproliferative activity against human SN12C cells measured after 48 hrs by SRB assay; assay type: functional, cell-based
A549 = assay: Antiproliferative activity against human A549 cells measured after 48 hrs by SRB assay; assay type: functional, cell-based
RXF 393 = assay: Antiproliferative activity against human RXF 393 cells measured after 48 hrs by SRB assay; assay type: functional, cell-based
SK-MEL-2 = assay: Antiproliferative activity against human SK-MEL-2 cells measured after 48 hrs by SRB assay; assay type: functional, cell-based
NCI/ADR-RES = assay: Antiproliferative activity against human NCI-ADR-RES cells measured after 48 hrs by SRB assay; assay type: functional, cell-based
PC-3 = assay: Antiproliferative activity against human PC-3 cells measured after 48 hrs by SRB assay; assay type: functional, cell-based
HOP-62 = assay: Antiproliferative activity against human HOP-62 cells measured after 48 hrs by SRB assay; assay type: functional, cell-based
[1] = target: Mitogen-activated protein kinase 10 (Homo sapiens, UniProt P53779); assay: Inhibition of JNK3 (unknown origin) at 1 uM relative to control
Chain of Mitogen-activated protein kinase 10 (P53779 whole entry): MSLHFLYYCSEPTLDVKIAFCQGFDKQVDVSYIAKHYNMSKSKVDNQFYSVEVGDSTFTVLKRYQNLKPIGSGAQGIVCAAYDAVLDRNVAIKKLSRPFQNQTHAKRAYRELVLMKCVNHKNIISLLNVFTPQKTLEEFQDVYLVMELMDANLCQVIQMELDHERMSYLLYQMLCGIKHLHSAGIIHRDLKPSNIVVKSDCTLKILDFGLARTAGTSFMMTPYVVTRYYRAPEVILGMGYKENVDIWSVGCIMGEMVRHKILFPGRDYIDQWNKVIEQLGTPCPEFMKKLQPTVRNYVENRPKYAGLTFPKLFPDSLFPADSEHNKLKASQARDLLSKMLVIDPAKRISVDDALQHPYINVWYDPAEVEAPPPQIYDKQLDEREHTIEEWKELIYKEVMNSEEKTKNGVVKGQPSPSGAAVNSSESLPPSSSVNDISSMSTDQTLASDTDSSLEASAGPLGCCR

KM12 = assay: Antiproliferative activity against human KM12 cells measured after 48 hrs by SRB assay; assay type: functional, cell-based
RPMI-8226 = assay: Antiproliferative activity against human RPMI-8226 cells measured after 48 hrs by SRB assay; assay type: functional, cell-based
DU-145 = assay: Antiproliferative activity against human DU-145 cells measured after 48 hrs by SRB assay; assay type: functional, cell-based
SF-268 = assay: Antiproliferative activity against human SF-268 cells measured after 48 hrs by SRB assay; assay type: functional, cell-based
OVCAR-5 = assay: Antiproliferative activity against human OVCAR-5 cells measured after 48 hrs by SRB assay; assay type: functional, cell-based
HCC 2998 = assay: Antiproliferative activity against human HCC 2998 cells measured after 48 hrs by SRB assay; assay type: functional, cell-based
CCRF-CEM = assay: Antiproliferative activity against human CCRF-CEM cells measured after 48 hrs by SRB assay; assay type: functional, cell-based
MDA-MB-468 = assay: Antiproliferative activity against human MDA-MB-468 cells measured after 48 hrs by SRB assay; assay type: functional, cell-based
OVCAR-8 = assay: Antiproliferative activity against human OVCAR-8 cells measured after 48 hrs by SRB assay; assay type: functional, cell-based
ACHN = assay: Antiproliferative activity against human ACHN cells measured after 48 hrs by SRB assay; assay type: functional, cell-based
NCI-H23 = assay: Antiproliferative activity against human NCI-H23 cells measured after 48 hrs by SRB assay; assay type: functional, cell-based
SF-539 = assay: Antiproliferative activity against human SF-539 cells measured after 48 hrs by SRB assay; assay type: functional, cell-based
UO-31 = assay: Antiproliferative activity against human UO-31 cells measured after 48 hrs by SRB assay; assay type: functional, cell-based

Structure (SMILES): O=C(NCCCNc1cc(-c2cn(-c3ccccc3)nc2-c2cccc(O)c2)ccn1)Nc1cccc(C(F)(F)F)c1
- pIC50 (SW-620; SW-620, 48 h): 5.41
- TGI (SW-620; SW-620, time 48 hrs): 8.31 µM
- pIC50 (NCI-H522; NCI-H522, 48 h): 5.29
- TGI (NCI-H522; NCI-H522, time 48 hrs): 11 µM
- pIC50 (HT-29; HT-29, 48 h): 5.82
- TGI (HT-29; HT-29, time 48 hrs): 6.19 µM
- pIC50 (OVCAR-3; OVCAR-3, 48 h): 5.73
- TGI (OVCAR-3; OVCAR-3, time 48 hrs): 9.35 µM
- pIC50 (K562; K562, 48 h): 5.90
- TGI (K562; K562, time 48 hrs): > 14.5 µM
- pIC50 (HOP-92; HOP-92, 48 h): 5.90
- TGI (HOP-92; HOP-92, time 48 hrs): 6.01 µM
- pIC50 (NCI-H226; NCI-H226, 48 h): 5.31
- TGI (NCI-H226; NCI-H226, time 48 hrs): 11.5 µM
- pIC50 (SR; 48 h): 5.78
- TGI (SR; time 48 hrs): 12.8 µM
- pIC50 (WI-38): 4.87
- pIC50 (OVCAR-4; OVCAR-4, 48 h): 5.67
- TGI (OVCAR-4; OVCAR-4, time 48 hrs): 7.75 µM
- pIC50 (Malme-3M; 48 h): 5.81
- TGI (Malme-3M; time 48 hrs): 6.08 µM
- pIC50 (UACC-62; UACC-62, 48 h): 5.36
- TGI (UACC-62; UACC-62, time 48 hrs): 8.84 µM
- pIC50 (HCT-15; HCT-15, 48 h): 5.97
- TGI (HCT-15; HCT-15, time 48 hrs): 4.32 µM
- pIC50 (SK-MEL-28; SK-MEL-28, 48 h): 5.46
- TGI (SK-MEL-28; SK-MEL-28, time 48 hrs): 7.51 µM
- pIC50 (SNB-75; SNB-75, 48 h): 6.13
- TGI (SNB-75; SNB-75, time 48 hrs): 4.1 µM
- pIC50 (HCT-116; HCT-116, 48 h): 5.71
- TGI (HCT-116; HCT-116, time 48 hrs): 6.33 µM
- pIC50 (MOLT-4; MOLT-4, 48 h): 5.78
- TGI (MOLT-4; MOLT-4, time 48 hrs): 15 µM
- pIC50 (A498; A498, 48 h): 5.50
- TGI (A498; A498, time 48 hrs): 7.18 µM
- pIC50 (SN12C; 48 h): 5.44
- TGI (SN12C; time 48 hrs): 7.91 µM
- pIC50 (A549; A549, 48 h): 5.47
- TGI (A549; A549, time 48 hrs): 11.2 µM
- pIC50 (RXF 393; RXF 393, 48 h): 5.97
- TGI (RXF 393; RXF 393, time 48 hrs): 4.96 µM
- pIC50 (SK-MEL-2; SK-MEL-2, 48 h): 5.28
- TGI (SK-MEL-2; SK-MEL-2, time 48 hrs): 11.7 µM
- pIC50 (NCI/ADR-RES; 48 h): 5.31
- TGI (NCI/ADR-RES; time 48 hrs): 12.8 µM
- pIC50 (PC-3; PC-3, 48 h): 5.75
- TGI (PC-3; PC-3, time 48 hrs): 11.2 µM
- pIC50 (HOP-62; HOP-62, 48 h): 5.39
- TGI (HOP-62; HOP-62, time 48 hrs): 9.59 µM
- inhibition [1]: 73%
- pIC50 (KM12; KM12, 48 h): 5.58
- TGI (KM12; KM12, time 48 hrs): 7.39 µM
- pIC50 (RPMI-8226; RPMI-8226, 48 h): 6.14
- TGI (RPMI-8226; RPMI-8226, time 48 hrs): 6.12 µM
- pIC50 (DU-145; DU-145, 48 h): 5.32
- TGI (DU-145; DU-145, time 48 hrs): 11.9 µM
- pIC50 (SF-268; SF-268, 48 h): 5.49
- TGI (SF-268; SF-268, time 48 hrs): 9.69 µM
- pIC50 (OVCAR-5; OVCAR-5, 48 h): 5.40
- TGI (OVCAR-5; OVCAR-5, time 48 hrs): 9.71 µM
- pIC50 (HCC 2998; HCC 2998, 48 h): 5.90
- TGI (HCC 2998; HCC 2998, time 48 hrs): 4.34 µM
- pIC50 (CCRF-CEM; 48 h): 5.77
- TGI (CCRF-CEM; time 48 hrs): > 33.3 µM
- pIC50 (MDA-MB-468; MDA-MB-468, 48 h): 5.79
- TGI (MDA-MB-468; MDA-MB-468, time 48 hrs): 6.16 µM
- pIC50 (OVCAR-8; OVCAR-8, 48 h): 5.41
- TGI (OVCAR-8; OVCAR-8, time 48 hrs): 10 µM
- pIC50 (ACHN; 48 h): 5.28
- TGI (ACHN; time 48 hrs): 15.5 µM
- pIC50 (NCI-H23; NCI-H23, 48 h): 5.36
- TGI (NCI-H23; NCI-H23, time 48 hrs): 9.34 µM
- pIC50 (SF-539; SF-539, 48 h): 5.56
- TGI (SF-539; SF-539, time 48 hrs): 7.18 µM
- pIC50 (UO-31; UO-31, 48 h): 5.68
- TGI (UO-31; UO-31, time 48 hrs): 10.8 µM
